Test results taken from US20240174727A1, “LONG-ACTING NATRIURETIC PEPTIDES AND USES THEREOF” (Eli Lilly and Company, priority 2022, published 2024).
Like-named read-outs stand apart in the source and are kept apart here. Numbered stars: 1 amine (or outer) side, 2 acyl side, 3 side chain; on linkers, the order of the positions; unused ones are H or OH. Bridge positions count the residues as written; N and C are the ends. Square brackets hold non-standard residues; d marks the D form. Peptide text beside a SMILES is read from it. * marks the point of attachment. PEG24 = NCCOCCOCCOCCOCCOCCOCCOCCOCCOCCOCCOCCOCCOCCOCCOCCOCCOCCOCCOCCOCCOCCOCCOCCOCCC(=O)O; C20 diacid = O=C(O)CCCCCCCCCCCCCCCCCCC(=O)*; γGlu = O=C(O)[C@H](CCC(=O)[*:2])N[*:1]; 4Pal = N[C@@H](Cc1ccncc1)C(=O)O; Dap = NC[C@H](N)C(=O)O; CH2 = C([*:1])[*:2]; βAla = NCCC(=O)O

Target: T1, rat NPRA (Rattus norvegicus, UniProt P18910)
T1 construct: Full-Length cDNA Cloning and Generation of Cell Lines Overexpressing Natriuretic Peptide Receptors (NPRs); expressed in transfected cells; host or cells: Jump-in T-Rex HEK293 cells, pJTI R4 CMV-TO MCS pA vector, tetracycline induction
T1 sequence (P18910 29-1057): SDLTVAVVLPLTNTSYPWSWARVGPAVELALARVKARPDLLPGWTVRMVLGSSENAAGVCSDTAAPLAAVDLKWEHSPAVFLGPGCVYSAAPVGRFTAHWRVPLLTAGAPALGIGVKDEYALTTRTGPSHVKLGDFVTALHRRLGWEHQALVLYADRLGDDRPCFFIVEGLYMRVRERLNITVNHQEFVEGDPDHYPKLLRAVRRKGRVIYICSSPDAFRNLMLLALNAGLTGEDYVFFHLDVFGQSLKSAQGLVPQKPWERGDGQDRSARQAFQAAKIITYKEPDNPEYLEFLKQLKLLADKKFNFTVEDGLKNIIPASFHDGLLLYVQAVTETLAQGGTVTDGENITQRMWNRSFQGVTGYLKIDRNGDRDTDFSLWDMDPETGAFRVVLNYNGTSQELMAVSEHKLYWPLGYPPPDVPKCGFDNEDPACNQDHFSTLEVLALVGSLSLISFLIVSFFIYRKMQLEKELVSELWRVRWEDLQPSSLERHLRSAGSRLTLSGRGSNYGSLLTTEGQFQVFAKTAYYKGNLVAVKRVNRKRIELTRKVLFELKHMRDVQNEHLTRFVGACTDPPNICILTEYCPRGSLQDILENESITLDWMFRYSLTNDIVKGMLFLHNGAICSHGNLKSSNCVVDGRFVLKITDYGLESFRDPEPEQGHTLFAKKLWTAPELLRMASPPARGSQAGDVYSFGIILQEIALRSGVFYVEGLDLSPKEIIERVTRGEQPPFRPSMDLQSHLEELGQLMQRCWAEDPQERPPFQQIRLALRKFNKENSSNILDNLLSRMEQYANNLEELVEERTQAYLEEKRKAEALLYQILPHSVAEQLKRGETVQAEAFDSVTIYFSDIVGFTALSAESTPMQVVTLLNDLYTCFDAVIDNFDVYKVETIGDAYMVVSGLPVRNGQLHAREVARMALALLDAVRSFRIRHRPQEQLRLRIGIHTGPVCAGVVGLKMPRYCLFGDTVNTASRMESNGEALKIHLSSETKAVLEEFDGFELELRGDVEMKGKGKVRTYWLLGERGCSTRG
Experiment: Rat NPRA cGMP activity assay (HTRF) in HEK293 cells overexpressing NPRA
Assay type: cell-based
Procedure, shortened: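 cGMP measured by HTRF and scaled between buffer (minimum) and 100 nM amidated rat ANP (maximum). Polypeptides in 10-fold steps from 10 μM to 1 pM, 0.5% DMSO, 0.5 mM IBMX, 40 min at room temperature, on induced NPRA-overexpressing HEK293 cells.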

[1] = cGMP Assay (EC50, pM) w/Casein rNPRA, assay buffer with 0.1% casein
[2] = cGMP Assay (EC50, pM) w/BSA rNPRA, assay buffer with 0.1% BSA
[3] = assay buffer with 0.1% BSA, read-out: cGMP Assay (EC50, pM) w/BSA rNPRA
[4] = assay buffer with 0.1% casein, read-out: cGMP Assay (EC50, pM) w/Casein rNPRA

Row | Molecule | EC50 [1] [pM] | EC50 [2] [pM] | EC50 [3] [pM] | EC50 [4] [pM]
1 | {C20 diacid-γGlu}-EKEKEKGS[4Pal]RRSSCFGGRIGRIGHQSGLGCPSFRHGGPSSGAPPPS-NH2 (disulfide 14-30) [Example 29] | 16800 |  |  | 
2 | {C20 diacid-γGlu}-EKEKEKG[PEG24]S[4Pal]RRSSCFGGRIDRIGHQSGLGCPSFRHGGPSSGAPPPS-NH2 (linker 15-31 via CH2) [Example 61] |  | 463000 |  | 
3 | {C20 diacid-γGlu}-EKEKEKGEKPRSSCFG[Dap]RIDRIGHQSGLGCPSFRHGSPSSGAPPPS-NH2 (linker 14-30 via CH2) [Example 137] |  |  | 2.19e+06 | 76900
4 | CC[C@H](C)[C@@H]1NC(=O)[C@H](CCCNC(=N)N)NC(=O)[C@H](CC(=O)O)NC(=O)[C@H]([C@@H](C)CC)NC(=O)[C@H](CCCNC(=N)N)NC(=O)[C@H](CCCCN)NC(=O)CNC(=O)[C@H](Cc2ccccc2)NC(=O)[C@@H](NC(=O)[C@H](CO)NC(=O)[C@H](CO)NC(=O)[C@H](CCCNC(=N)N)NC(=O)CCNC(=O)[C@H](CCCCN)NC(=O)[C@H](CCC(=O)O)NC(=O)COCCOCCNC(=O)COCCOCCNC(=O)COCCOCCNC(=O)COCCOCCNC(=O)COCCOCCNC(=O)COCCOCCNC(=O)CNC(=O)[C@H](CCCCN)NC(=O)[C@H](CCC(=O)O)NC(=O)[C@H](CCCCN)NC(=O)[C@H](CCC(=O)O)NC(=O)[C@H](CCCCN)NC(=O)[C@H](CCC(=O)O)NC(=O)CC[C@H](NC(=O)CCCCCCCCCCCCCCCCCCC(=O)O)C(=O)O)CSCSC[C@@H](C(=O)N2CCC[C@H]2C(=O)N[C@@H](CO)C(=O)N[C@@H](Cc2ccccc2)C(=O)N[C@@H](CCCNC(=N)N)C(=O)N[C@@H](Cc2c[nH]cn2)C(=O)NCC(=O)NCC(=O)N[C@@H](CCCCN)C(=O)N[C@@H](CO)C(=O)N[C@@H](CO)C(=O)NCC(=O)N[C@@H](C)C(=O)N2CCC[C@H]2C(=O)N2CCC[C@H]2C(=O)N2CCC[C@H]2C(=O)N[C@@H](CO)C(N)=O)NC(=O)CNC(=O)[C@H](CC(C)C)NC(=O)CNC(=O)[C@H](CO)NC(=O)[C@H](CCC(N)=O)NC(=O)[C@H](Cc2c[nH]cn2)NC(=O)CNC1=O [Example 89] |  |  |  | 13800
5 | CC[C@H](C)[C@@H]1NC(=O)[C@H](CCCNC(=N)N)NC(=O)[C@H](CC(=O)O)NC(=O)[C@H]([C@@H](C)CC)NC(=O)[C@H](CCCNC(=N)N)NC(=O)CNC(=O)CNC(=O)[C@H](Cc2ccccc2)NC(=O)[C@@H](NC(=O)[C@H](CO)NC(=O)[C@H](CO)NC(=O)[C@H](CCCNC(=N)N)NC(=O)[C@H](CCCNC(=N)N)NC(=O)[C@H](Cc2ccncc2)NC(=O)[C@H](CO)NC(=O)COCCOCCNC(=O)COCCOCCNC(=O)COCCOCCNC(=O)COCCOCCNC(=O)COCCOCCNC(=O)COCCOCCNC(=O)CNC(=O)[C@H](CCCCN)NC(=O)[C@H](CCC(=O)O)NC(=O)[C@H](CCCCN)NC(=O)[C@H](CCC(=O)O)NC(=O)[C@H](CCCCN)NC(=O)[C@H](CCC(=O)O)NC(=O)CC[C@H](NC(=O)CCCCCCCCCCCCCCCCCCC(=O)O)C(=O)O)CSCSC[C@@H](C(=O)N2CCC[C@H]2C(=O)N[C@@H](CO)C(=O)N[C@@H](Cc2ccccc2)C(=O)N[C@@H](CCCNC(=N)N)C(=O)N[C@@H](Cc2c[nH]cn2)C(=O)NCC(=O)NCC(=O)N[C@@H](CCCCN)C(=O)N[C@@H](CO)C(=O)N[C@@H](CO)C(=O)NCC(=O)N[C@@H](C)C(=O)N2CCC[C@H]2C(=O)N2CCC[C@H]2C(=O)N2CCC[C@H]2C(=O)N[C@@H](CO)C(N)=O)NC(=O)CNC(=O)[C@H](CC(C)C)NC(=O)CNC(=O)[C@H](CO)NC(=O)[C@H](CCC(N)=O)NC(=O)[C@H](Cc2c[nH]cn2)NC(=O)CNC1=O [Example 86] |  |  |  | 17900
6 | CC[C@H](C)[C@@H]1NC(=O)[C@H](CCCNC(=N)N)NC(=O)[C@H](CC(=O)O)NC(=O)[C@H]([C@@H](C)CC)NC(=O)[C@H](CCCNC(=N)N)NC(=O)CNC(=O)CNC(=O)[C@H](Cc2ccccc2)NC(=O)[C@@H](NC(=O)[C@H](CO)NC(=O)[C@H](CO)NC(=O)[C@H](CCCNC(=N)N)NC(=O)CCNC(=O)[C@H](CCCCN)NC(=O)[C@H](CCC(=O)O)NC(=O)CNC(=O)[C@H](CCCCN)NC(=O)[C@H](CCC(=O)O)NC(=O)[C@H](CCCCN)NC(=O)[C@H](CCC(=O)O)NC(=O)[C@H](CCCCN)NC(=O)[C@H](CCC(=O)O)NC(=O)CC[C@H](NC(=O)CCCCCCCCCCCCCCCCCCC(=O)O)C(=O)O)CSCSC[C@@H](C(=O)N2CCC[C@H]2C(=O)N[C@@H](CO)C(=O)N[C@@H](Cc2ccccc2)C(=O)N[C@@H](CCCNC(=N)N)C(=O)N[C@@H](Cc2c[nH]cn2)C(=O)NCC(=O)NCC(=O)N2CCC[C@H]2C(=O)N[C@@H](CO)C(=O)N[C@@H](CO)C(=O)NCC(=O)N[C@@H](C)C(=O)N2CCC[C@H]2C(=O)N2CCC[C@H]2C(=O)N2CCC[C@H]2C(=O)N[C@@H](CO)C(N)=O)NC(=O)CNC(=O)[C@H](CC(C)C)NC(=O)CNC(=O)[C@H](CO)NC(=O)[C@H](Cc2ccc(O)cc2)NC(=O)[C@H](Cc2c[nH]cn2)NC(=O)CNC1=O [Example 56] | 11200 | 1.38e+06 |  | 
7 | CC[C@H](C)[C@@H]1NC(=O)[C@H](CCCNC(=N)N)NC(=O)[C@H](CC(=O)O)NC(=O)[C@H]([C@@H](C)CC)NC(=O)[C@H](CCCNC(=N)N)NC(=O)CNC(=O)CNC(=O)[C@H](Cc2ccccc2)NC(=O)[C@@H](NC(=O)[C@H](CO)NC(=O)[C@H](CO)NC(=O)[C@H](CCCNC(=N)N)NC(=O)CCNC(=O)[C@H](CCC(=O)O)NC(=O)[C@H](CCCCN)NC(=O)CNC(=O)[C@H](CCCCN)NC(=O)[C@H](CCC(=O)O)NC(=O)[C@H](CCCCN)NC(=O)[C@H](CCC(=O)O)NC(=O)[C@H](CCCCN)NC(=O)[C@H](CCC(=O)O)NC(=O)CC[C@H](NC(=O)CCCCCCCCCCCCCCCCCCC(=O)O)C(=O)O)CSCSC[C@@H](C(=O)N2CCC[C@H]2C(=O)N[C@@H](CO)C(=O)N[C@@H](Cc2ccccc2)C(=O)N[C@@H](CCCNC(=N)N)C(=O)N[C@@H](Cc2c[nH]cn2)C(=O)NCC(=O)NCC(=O)N2CCC[C@H]2C(=O)N[C@@H](CO)C(=O)N[C@@H](CO)C(=O)NCC(=O)N[C@@H](C)C(=O)N2CCC[C@H]2C(=O)N2CCC[C@H]2C(=O)N2CCC[C@H]2C(=O)N[C@@H](CO)C(N)=O)NC(=O)CNC(=O)[C@H](CC(C)C)NC(=O)CNC(=O)[C@H](CO)NC(=O)[C@H](Cc2ccc(O)cc2)NC(=O)[C@H](Cc2c[nH]cn2)NC(=O)CNC1=O [Example 58] |  | 1.38e+06 |  | 
8 | CC[C@H](C)[C@@H]1NC(=O)[C@H](CCCNC(=N)N)NC(=O)[C@H](CC(=O)O)NC(=O)[C@H]([C@@H](C)CC)NC(=O)[C@H](CCCNC(=N)N)NC(=O)[C@H](CCCCN)NC(=O)CNC(=O)[C@H](Cc2ccccc2)NC(=O)[C@@H](NC(=O)[C@H](CO)NC(=O)[C@H](CO)NC(=O)[C@H](CCCNC(=N)N)NC(=O)CCNC(=O)[C@H](CCCCN)NC(=O)[C@H](CCC(=O)O)NC(=O)CCOCCOCCOCCOCCOCCOCCOCCOCCOCCOCCOCCOCCOCCOCCOCCOCCOCCOCCOCCOCCOCCOCCOCCOCCNC(=O)CNC(=O)[C@H](CCCCN)NC(=O)[C@H](CCC(=O)O)NC(=O)[C@H](CCCCN)NC(=O)[C@H](CCC(=O)O)NC(=O)[C@H](CCCCN)NC(=O)[C@H](CCC(=O)O)NC(=O)CC[C@H](NC(=O)CCCCCCCCCCCCCCCCCCC(=O)O)C(=O)O)CSCSC[C@@H](C(=O)N2CCC[C@H]2C(=O)N[C@@H](CO)C(=O)N[C@@H](Cc2ccccc2)C(=O)N[C@@H](CCCNC(=N)N)C(=O)N[C@@H](Cc2c[nH]cn2)C(=O)NCC(=O)NCC(=O)N2CCC[C@H]2C(N)=O)NC(=O)CNC(=O)[C@H](CC(C)C)NC(=O)CNC(=O)[C@H](CO)NC(=O)[C@H](CCC(N)=O)NC(=O)[C@H](Cc2c[nH]cn2)NC(=O)CNC1=O [Example 130] ({C20 diacid-γGlu}-EKEKEKG[PEG24]EK[βAla]RSSCFGKRIDRIGHQSGLGCPSFRHGGP-NH2; linker 15-31 via CH2) |  |  | 197000 | 9170
9 | {C20 diacid-γGlu}-EKEKEKGEKPRSSCFG[Dap]RIDRIGHYSGLGCPSFRHGSPSSGAPPPS-NH2 (linker 14-30 via CH2) [Example 136] |  |  | 2.43e+06 | 32900
